# Measured values: patent US20090325873A1, “HUMAN GLP-1 MIMETIBODIES, COMPOSITIONS, METHODS AND USES” (CENTOCOR, INC., priority 2006, published 2009)
# Where no end group is shown, it is not given here.
# Key:
# db/db mice = experiment: Blood glucose in db/db mice after intravenous dosing; format: in vivo; conditions: six week old db/db mice, 0.5-4 hours post-dosing, MMB dose 100-fold lower than peptide dose
# Description: Blood glucose was monitored 0.5, 1, 2, 3, and 4 hours post-dosing.
# female beagle dogs = experiment: Gastric emptying in normal dogs; format: in vivo; conditions: lidamidine 0.63 mg/kg sc 60 minutes before the meal; GLP-1 MMB 0.1 mg/kg iv 15 minutes before the meal
# Description: A gastric cannula was surgically implanted into female beagle dogs (10-15 kg) under general anesthesia and allowed to recover for at least 2 weeks. Dogs were fasted for 24 hours after which water was freely available. The gastric cannula was opened and gastric juice and food remnants were removed with 40-50 ml of lukewarm water. Groups of six dogs were dosed subcutaneously with lidamidine, an alpha2 agonist (0.63 mg/kg), 60 minutes before the meal, a positive control for delay of gastric emptying. […] Five minutes before the meal, the gastric cannula was opened to determine the amount of fluid present in stomach for baseline value and fluid was promptly reintroduced. Then a test meal consisting of 250 ml of a glucose solution (5 g/l) was administered via the cannula and allowed to remain in the stomach for 30 minutes. Gastric contents were drained from the stomach to measure total volume after 30 minutes. […] Glucose concentrations were evaluated for collected samples and used to determine the absolute amount of glucose remaining in the stomach at each time point. The percentage of glucose retained in the stomach was determined from the starting value and the concentration of glucose at each time point and plotted as a function of time. The time at which 50% of the gastric contents were retained was determined by fitting of the curves to a single exponential.
# [1] = administered subcutaneously; cited from earlier work
# RINm cells = experiment: Insulin secretion in RINm cells; format: cell-based; conditions: peptides 0-5 nM, mimetibodies 5 or 50 nM, ELISA
# Description: To test the effect of GLP-1 MMB in insulin secretion, RINm cells were treated with increasing concentrations of GLP-1 (7-36) peptide (0-5 nM), exendin-4 peptide (0-5 nM), or various GLP-1 mimetibodies (5 or 50 nM) and the amount of insulin secreted was measured via ELISA. All GLP-1 MMBs tested had activities in stimulating insulin secretion in RINm cells (FIG. 6).
# GLP-1R−/− mice [2] = experiment: Food intake in GLP-1R−/− mice; format: in vivo; conditions: single iv GLP-1 MMB 1 mg/kg, exendin-4 0.07 mg/kg
# wild type mice [3] = experiment: Gastric emptying in wild type mice; format: in vivo; conditions: iv GLP-1 MMB 1 mg/kg, exendin-4 0.07 mg/kg
# Description: (§1) Materials/Methods: Animals: Male GLP-1R−/− and age matched wild type mice were randomized into three treatment groups (n=5) based on body weight and fasting blood glucose. […] The next morning mice were re-fed for 1 h, food intake was recorded and the mice were deprived of food for the rest of the study. Mice were dosed intravenously as discussed above. Two hours post-dosing mice were euthanized. The stomach was exposed by laparotomy, ligated at both the pylorus and cardia and removed. The stomach content wet weight was measured. Equation 1 was used to calculate the percent of food remaining in the stomach.
# (§2) (Stomach Content Wet Weight(g)/Food Intake(g))*100 Equation (1)
# GLP-1R−/− mice [4] = experiment: Gastric emptying in GLP-1R−/− mice; format: in vivo; conditions: iv GLP-1 MMB 1 mg/kg, exendin-4 0.07 mg/kg
# Description: as §1, §2
# wild type mice [5] = experiment: Glucose tolerance test (ipGTT) in wild type mice; format: in vivo; conditions: single iv GLP-1 MMB 1 mg/kg, exendin-4 0.07 mg/kg
# wild type mice [6] = experiment: Food intake in wild type mice; format: in vivo; conditions: single iv GLP-1 MMB 1 mg/kg, exendin-4 0.07 mg/kg
compound,measurement,setting,value
CC[C@H](C)[C@H](NC(=O)[C@H](Cc1ccccc1)NC(=O)[C@H](CCC(=O)O)NC(=O)[C@H](CCCCN)NC(=O)[C@H](C)NC(=O)[C@H](C)NC(=O)[C@H](CCC(N)=O)NC(=O)CNC(=O)[C@H](CCC(=O)O)NC(=O)[C@H](CC(C)C)NC(=O)[C@H](Cc1ccc(O)cc1)NC(=O)[C@H](CO)NC(=O)[C@H](CO)NC(=O)[C@@H](NC(=O)[C@H](CC(=O)O)NC(=O)[C@H](CO)NC(=O)[C@@H](NC(=O)[C@H](Cc1ccccc1)NC(=O)[C@@H](NC(=O)CNC(=O)[C@H](CCC(=O)O)NC(=O)[C@H](C)NC(=O)[C@@H](N)Cc1c[nH]cn1)[C@@H](C)O)[C@@H](C)O)C(C)C)C(=O)N[C@@H](C)C(=O)N[C@@H](Cc1c[nH]c2ccccc12)C(=O)N[C@@H](CC(C)C)C(=O)N[C@H](C(=O)N[C@@H](CCCCN)C(=O)NCC(=O)N[C@@H](CCCNC(=N)N)C(N)=O)C(C)C [GLP-1 peptide],blood glucose,db/db mice,lowered blood glucose at 30 minutes
CN=C(N)NC(=O)Nc1c(C)cccc1C [lidamidine],time in which 50% of the gastric contents were emptied,female beagle dogs,30.60 ± 6.47 min
GLP-1 (7-36) amide: GLP-1 (7-36) amide,time action,[1],about 50 minutes
"GLP-1 (7-36) peptide: wide-type GLP-1 (7-36) peptide (HAEGTFTSDVSSYLEGQAAKEFIAWLVKGR; ends and bridges not checked; UniProt P01275 98-127, looked up)",stimulation of insulin secretion in RINm cells,RINm cells,stimulates insulin release
exendin-4 [reference compound],24 hour cumulative food intake,GLP-1R−/− mice [2],no effect on food intake
same,stomach content (percent of food remaining) 2 h after dosing vs CNTO1996,wild type mice [3],statistically significant increase in stomach content
same,gastric emptying 2 h after dosing,GLP-1R−/− mice [4],no effect on gastric emptying
same,stimulation of insulin secretion in RINm cells,RINm cells,stimulates insulin release
same,area under the curve (AUC) of the ipGTT,wild type mice [5],statistically significant reduction in the AUC
same,24 hour cumulative food intake vs CNTO1996,wild type mice [6],statistically significant reduction in food intake
